A word on the Kd: it is the free concentration of one partner at which half of the binding sites on the other are occupied at equilibrium, for simple one-to-one binding.

Where a name gives a salt, the structure may show the parent alone. Active and inactive are the calls of the source.

For assay [1], the target named is Membrane-associated progesterone receptor component 1 (Homo sapiens, UniProt O00264).
The target of assay [2] is Putative heat shock protein HSP 90-beta 2 (Homo sapiens, UniProt Q58FF8).
Another assay has as its target T1, Rab-like protein 3 (Homo sapiens, UniProt Q5HYI8).
T1 sequence (Q5HYI8 whole entry): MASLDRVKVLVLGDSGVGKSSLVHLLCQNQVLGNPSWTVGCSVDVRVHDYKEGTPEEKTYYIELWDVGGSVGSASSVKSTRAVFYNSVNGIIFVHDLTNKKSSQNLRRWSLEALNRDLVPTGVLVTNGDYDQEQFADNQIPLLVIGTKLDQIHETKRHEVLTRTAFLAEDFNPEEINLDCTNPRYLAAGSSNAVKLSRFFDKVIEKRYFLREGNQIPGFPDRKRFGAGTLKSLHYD

Assay [3] has as its target T2, Inhibitor of nuclear factor kappa-B kinase subunit epsilon (Homo sapiens, UniProt Q14164).
T2 sequence (Q14164 whole entry): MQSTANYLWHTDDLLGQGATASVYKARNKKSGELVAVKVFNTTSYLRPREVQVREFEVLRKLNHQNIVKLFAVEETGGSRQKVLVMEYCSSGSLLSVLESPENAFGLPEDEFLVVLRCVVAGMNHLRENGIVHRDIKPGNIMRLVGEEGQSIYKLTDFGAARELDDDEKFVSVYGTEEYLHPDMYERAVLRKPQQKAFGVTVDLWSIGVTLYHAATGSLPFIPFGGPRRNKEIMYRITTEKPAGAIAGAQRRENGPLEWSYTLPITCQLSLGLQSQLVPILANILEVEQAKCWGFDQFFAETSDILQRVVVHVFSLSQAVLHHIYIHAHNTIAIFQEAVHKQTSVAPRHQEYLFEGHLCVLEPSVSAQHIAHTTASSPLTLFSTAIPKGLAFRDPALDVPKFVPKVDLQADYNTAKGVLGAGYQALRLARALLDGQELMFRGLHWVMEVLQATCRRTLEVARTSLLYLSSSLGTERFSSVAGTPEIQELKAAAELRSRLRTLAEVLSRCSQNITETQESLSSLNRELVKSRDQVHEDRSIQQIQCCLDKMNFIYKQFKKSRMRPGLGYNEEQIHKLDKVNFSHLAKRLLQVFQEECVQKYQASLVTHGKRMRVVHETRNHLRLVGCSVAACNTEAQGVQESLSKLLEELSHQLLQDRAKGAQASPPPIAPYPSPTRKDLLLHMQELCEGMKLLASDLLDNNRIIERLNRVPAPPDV

The target of assay [4] is Mitogen-activated protein kinase 7 (Homo sapiens, UniProt Q13164).
Assay [5] has as its target T3, Very long-chain specific acyl-CoA dehydrogenase, mitochondrial (Homo sapiens, UniProt P49748).
T3 sequence (P49748 whole entry): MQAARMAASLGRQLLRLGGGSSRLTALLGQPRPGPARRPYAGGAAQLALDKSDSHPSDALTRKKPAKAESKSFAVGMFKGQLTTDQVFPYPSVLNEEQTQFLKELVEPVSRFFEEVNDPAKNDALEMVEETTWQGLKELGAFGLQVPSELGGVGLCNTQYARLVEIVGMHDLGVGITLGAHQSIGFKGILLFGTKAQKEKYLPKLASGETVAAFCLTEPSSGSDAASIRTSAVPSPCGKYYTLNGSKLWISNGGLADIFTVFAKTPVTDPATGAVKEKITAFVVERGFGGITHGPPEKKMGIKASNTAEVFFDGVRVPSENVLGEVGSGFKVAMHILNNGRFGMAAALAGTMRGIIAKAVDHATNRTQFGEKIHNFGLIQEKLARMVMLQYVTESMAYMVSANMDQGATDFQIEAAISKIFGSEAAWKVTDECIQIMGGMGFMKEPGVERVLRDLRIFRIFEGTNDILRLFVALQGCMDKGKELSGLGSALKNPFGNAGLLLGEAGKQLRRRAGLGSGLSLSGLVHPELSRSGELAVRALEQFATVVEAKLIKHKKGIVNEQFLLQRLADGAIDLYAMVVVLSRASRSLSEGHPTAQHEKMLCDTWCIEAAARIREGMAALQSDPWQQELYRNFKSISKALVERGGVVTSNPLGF

For assay [6], the target named is BMP-2-inducible protein kinase (Homo sapiens, UniProt Q9NSY1).
Assay [7] deals with Serine/threonine-protein kinase PAK 4 (Homo sapiens, UniProt O96013).
For assay [8], the target named is T4, Acyl-CoA dehydrogenase family member 10 (Homo sapiens, UniProt Q6JQN1).
T4 sequence (Q6JQN1 whole entry): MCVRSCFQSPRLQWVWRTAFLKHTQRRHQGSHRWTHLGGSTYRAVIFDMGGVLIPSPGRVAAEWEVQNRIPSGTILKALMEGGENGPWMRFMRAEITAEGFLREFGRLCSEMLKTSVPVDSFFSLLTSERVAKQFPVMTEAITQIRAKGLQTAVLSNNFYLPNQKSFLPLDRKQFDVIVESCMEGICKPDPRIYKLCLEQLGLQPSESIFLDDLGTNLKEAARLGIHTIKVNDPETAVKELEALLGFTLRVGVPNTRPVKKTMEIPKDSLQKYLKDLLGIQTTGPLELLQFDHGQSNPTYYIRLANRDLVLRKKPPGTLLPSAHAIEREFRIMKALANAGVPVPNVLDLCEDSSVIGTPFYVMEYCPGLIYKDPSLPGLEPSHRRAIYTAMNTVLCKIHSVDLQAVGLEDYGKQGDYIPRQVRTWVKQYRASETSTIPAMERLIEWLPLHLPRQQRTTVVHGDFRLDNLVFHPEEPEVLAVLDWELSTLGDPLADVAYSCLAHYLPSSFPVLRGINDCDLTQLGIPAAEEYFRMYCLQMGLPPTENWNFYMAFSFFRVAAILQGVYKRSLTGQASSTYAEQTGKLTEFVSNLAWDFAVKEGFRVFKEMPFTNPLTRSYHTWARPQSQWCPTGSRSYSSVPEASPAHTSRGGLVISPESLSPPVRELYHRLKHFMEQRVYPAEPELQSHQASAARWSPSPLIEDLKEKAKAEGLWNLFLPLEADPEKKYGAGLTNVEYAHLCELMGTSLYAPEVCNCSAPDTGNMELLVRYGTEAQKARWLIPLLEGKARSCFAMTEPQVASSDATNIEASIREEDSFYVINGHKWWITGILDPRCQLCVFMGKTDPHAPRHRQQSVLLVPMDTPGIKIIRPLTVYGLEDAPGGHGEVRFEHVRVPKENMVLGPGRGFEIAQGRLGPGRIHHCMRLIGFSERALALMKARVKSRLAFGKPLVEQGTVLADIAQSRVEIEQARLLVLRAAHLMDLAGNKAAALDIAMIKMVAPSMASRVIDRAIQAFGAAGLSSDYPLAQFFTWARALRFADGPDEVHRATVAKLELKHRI

For a further assay, the target named is Adenosine kinase (Homo sapiens, UniProt P55263).
Further: in the data inactive means no Kd found up to 30 µM.

Sequence of BMP-2-inducible protein kinase (Q9NSY1 whole entry): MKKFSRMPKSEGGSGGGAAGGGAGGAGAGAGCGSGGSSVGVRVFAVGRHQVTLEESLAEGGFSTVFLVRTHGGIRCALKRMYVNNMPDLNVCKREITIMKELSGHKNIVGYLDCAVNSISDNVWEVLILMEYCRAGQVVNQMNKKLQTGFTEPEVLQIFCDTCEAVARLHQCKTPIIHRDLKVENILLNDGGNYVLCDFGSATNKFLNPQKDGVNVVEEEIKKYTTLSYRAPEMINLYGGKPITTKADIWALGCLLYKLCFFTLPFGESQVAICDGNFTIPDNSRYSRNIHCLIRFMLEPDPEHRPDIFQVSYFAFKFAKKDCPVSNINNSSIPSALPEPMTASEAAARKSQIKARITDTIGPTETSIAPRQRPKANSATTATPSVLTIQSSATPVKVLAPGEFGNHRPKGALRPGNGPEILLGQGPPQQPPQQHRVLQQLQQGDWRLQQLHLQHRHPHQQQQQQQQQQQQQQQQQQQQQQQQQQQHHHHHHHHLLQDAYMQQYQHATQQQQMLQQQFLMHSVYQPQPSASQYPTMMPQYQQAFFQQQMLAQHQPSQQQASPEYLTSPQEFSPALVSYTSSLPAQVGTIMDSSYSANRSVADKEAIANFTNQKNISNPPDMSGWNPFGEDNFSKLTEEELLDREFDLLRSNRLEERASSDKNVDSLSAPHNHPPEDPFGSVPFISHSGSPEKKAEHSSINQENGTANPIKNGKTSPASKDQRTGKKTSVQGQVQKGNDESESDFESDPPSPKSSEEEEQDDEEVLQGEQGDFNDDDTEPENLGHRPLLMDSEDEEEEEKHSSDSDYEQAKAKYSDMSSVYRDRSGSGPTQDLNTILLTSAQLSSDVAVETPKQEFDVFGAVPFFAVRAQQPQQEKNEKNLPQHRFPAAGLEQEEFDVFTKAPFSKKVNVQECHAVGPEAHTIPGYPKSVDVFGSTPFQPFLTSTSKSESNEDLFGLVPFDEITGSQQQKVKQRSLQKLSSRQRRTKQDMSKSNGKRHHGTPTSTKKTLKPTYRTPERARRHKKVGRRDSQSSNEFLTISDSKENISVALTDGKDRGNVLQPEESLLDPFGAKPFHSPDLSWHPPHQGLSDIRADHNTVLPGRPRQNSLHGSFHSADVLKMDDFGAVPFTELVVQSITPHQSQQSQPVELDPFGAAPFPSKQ
Sequence of Putative heat shock protein HSP 90-beta 2 (Q58FF8 whole entry): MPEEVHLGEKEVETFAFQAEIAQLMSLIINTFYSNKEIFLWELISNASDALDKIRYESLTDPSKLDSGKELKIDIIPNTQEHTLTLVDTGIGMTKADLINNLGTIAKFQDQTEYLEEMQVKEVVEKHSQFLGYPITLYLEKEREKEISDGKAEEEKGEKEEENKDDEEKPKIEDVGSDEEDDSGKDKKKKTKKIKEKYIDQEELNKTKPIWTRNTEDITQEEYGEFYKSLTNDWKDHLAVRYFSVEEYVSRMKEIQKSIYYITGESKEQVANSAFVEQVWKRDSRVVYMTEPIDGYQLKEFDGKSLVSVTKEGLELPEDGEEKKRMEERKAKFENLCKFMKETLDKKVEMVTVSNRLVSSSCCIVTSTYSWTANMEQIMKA
Sequence of Adenosine kinase (P55263 whole entry): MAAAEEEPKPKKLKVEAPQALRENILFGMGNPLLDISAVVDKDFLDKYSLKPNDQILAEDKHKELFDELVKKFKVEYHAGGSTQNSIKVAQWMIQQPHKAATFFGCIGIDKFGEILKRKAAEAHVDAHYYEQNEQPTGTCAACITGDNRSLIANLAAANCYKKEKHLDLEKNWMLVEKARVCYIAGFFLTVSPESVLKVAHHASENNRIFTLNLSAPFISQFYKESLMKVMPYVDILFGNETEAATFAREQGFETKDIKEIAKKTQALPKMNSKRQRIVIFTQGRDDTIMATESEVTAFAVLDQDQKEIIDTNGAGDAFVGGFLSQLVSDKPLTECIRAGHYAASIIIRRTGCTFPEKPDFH
Sequence of Membrane-associated progesterone receptor component 1 (O00264 whole entry): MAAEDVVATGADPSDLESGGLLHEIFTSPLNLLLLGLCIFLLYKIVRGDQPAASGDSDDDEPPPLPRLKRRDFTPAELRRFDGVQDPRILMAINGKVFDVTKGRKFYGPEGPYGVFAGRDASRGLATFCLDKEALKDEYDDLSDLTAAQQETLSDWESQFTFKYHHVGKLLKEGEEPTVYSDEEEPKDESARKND
Sequence of Mitogen-activated protein kinase 7 (Q13164 whole entry): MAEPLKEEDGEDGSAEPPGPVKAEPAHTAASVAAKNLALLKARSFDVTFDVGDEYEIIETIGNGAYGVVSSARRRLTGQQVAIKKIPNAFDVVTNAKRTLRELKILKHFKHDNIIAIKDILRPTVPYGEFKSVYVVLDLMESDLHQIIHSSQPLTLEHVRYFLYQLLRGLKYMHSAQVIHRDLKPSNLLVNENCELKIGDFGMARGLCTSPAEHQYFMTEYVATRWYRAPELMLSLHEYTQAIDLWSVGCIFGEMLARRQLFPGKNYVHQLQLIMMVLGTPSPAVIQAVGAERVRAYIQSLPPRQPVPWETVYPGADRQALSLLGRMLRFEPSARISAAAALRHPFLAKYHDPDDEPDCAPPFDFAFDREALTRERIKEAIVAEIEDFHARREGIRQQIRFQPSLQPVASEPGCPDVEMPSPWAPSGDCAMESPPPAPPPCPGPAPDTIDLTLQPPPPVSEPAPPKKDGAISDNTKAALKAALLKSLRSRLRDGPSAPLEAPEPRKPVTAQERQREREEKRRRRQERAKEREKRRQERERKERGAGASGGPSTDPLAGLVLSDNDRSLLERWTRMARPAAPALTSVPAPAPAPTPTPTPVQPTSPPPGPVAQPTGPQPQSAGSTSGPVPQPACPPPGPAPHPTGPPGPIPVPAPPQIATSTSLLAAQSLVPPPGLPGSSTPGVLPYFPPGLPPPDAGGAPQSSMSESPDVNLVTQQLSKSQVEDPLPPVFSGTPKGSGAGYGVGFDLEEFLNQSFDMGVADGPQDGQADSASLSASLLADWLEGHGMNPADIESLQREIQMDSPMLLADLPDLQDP
Sequence of Serine/threonine-protein kinase PAK 4 (O96013 whole entry): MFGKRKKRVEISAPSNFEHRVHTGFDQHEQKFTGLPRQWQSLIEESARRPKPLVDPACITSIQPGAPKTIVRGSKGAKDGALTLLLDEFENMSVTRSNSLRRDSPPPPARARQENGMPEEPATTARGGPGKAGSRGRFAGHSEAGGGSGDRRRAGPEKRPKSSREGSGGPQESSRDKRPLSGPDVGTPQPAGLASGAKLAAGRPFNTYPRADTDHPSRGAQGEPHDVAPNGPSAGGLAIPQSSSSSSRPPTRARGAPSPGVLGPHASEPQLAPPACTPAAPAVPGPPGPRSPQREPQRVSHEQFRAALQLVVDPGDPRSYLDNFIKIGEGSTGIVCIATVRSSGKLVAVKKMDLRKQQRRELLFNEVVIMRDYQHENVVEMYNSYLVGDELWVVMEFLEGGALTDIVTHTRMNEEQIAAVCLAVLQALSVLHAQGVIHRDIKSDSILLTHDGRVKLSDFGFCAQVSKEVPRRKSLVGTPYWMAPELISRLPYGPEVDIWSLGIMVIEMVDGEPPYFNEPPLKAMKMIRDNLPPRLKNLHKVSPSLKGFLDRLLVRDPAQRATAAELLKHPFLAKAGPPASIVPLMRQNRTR

For `C[C@@H](Oc1cc(C(=O)Nc2ccc(C(=O)N3CCN(C)CC3)cc2)nnc1N)c1c(Cl)ccc(F)c1Cl`, the Kd (in assay [1]; in [2]; on Rab-like protein 3; in [3]; in assay [4]; in [5]) was > 30 µM (inactive) throughout. Moreover, the Kd in assay [6], in [7] and in assay [8] was > 30 µM (inactive) throughout.

Take `Cc1nc(NC(=O)N2CCC[C@H]2C(N)=O)sc1-c1ccnc(C(C)(C)C(F)(F)F)c1` [ALPELISIB]: the Kd (in assay [1]; in [2]; in assay [3]; in assay [4]; in [5]; at Adenosine kinase) was > 30 µM (inactive) each time. Further, the Kd in [6], in assay [7] and in assay [8] was > 30 µM (inactive) in each case.

Take `COc1cc([C@@H]2c3cc4c(cc3[C@H](O)[C@H]3COC(=O)[C@@H]23)OCO4)cc(OC)c1OC` [AXL-1717]: the Kd (in [1]; in [2]; on Rab-like protein 3; in assay [3]; in [4]; in [5]) was > 30 µM (inactive) throughout. For the same molecule, the Kd (at Adenosine kinase; in [6]; in assay [7]) was > 30 µM (inactive) in each case.

As for `CCS(=O)(=O)N1CCN(c2ccc(Nc3ncc(C(N)=O)c(NC4CC4)n3)cc2)CC1` [Cerdulatinib Hydrochloride], the Kd is > 30 µM (inactive) in [1]; > 30 µM (inactive) in assay [2]; > 30 µM (inactive) at Rab-like protein 3; 1.29 µM (active) in [3]; > 30 µM (inactive) in assay [4]; > 30 µM (inactive) in assay [5]. The Kd in assay [6] was 0.0008 µM (active); in assay [7], 0.851 µM (active); in [8], > 30 µM (inactive).

`Cc1nc2cc(-n3ncc(C(=O)c4cc5ccccc5[nH]4)c3N)ccc2[nH]1` [FGFR INHIBITOR DEBIO 1347]: the Kd (in [1]; in assay [2]; on Rab-like protein 3; in assay [3]; in assay [4]; in assay [6]) was > 30 µM (inactive) throughout. For the same molecule, the Kd in assay [7] and in assay [8] was > 30 µM (inactive) each time.

Regarding `CNC(=O)c1cccc2cc(Oc3ccnc4cc(OCC5(N)CC5)c(OC)cc34)ccc12` [LUCITANIB], the Kd (in assay [1]; in assay [2]; in [3]; in assay [4]; in assay [5]; at Adenosine kinase) was > 30 µM (inactive) throughout. Further, the Kd in [6], in assay [7] and in [8] was > 30 µM (inactive) in each case.

Regarding `CN(C[C@@H]1COCCO1)S(=O)(=O)Nc1ccc2ccc3ncc(-c4cnn(C)c4)cc3c(=O)c2c1` [MK-2461], the Kd (in [1]; in assay [2]; at Rab-like protein 3; in [3]; in assay [4]; in assay [5]) was > 30 µM (inactive) throughout. For the same molecule, the Kd (at Adenosine kinase; in assay [6]; in assay [7]) was > 30 µM (inactive) in each case.

Take `COc1ncc(-c2ccc3nccc(-c4ccnnc4)c3c2)cc1NS(=O)(=O)c1ccc(F)cc1F` [OMIPALISIB]: the Kd (in [1]; in assay [2]; at Rab-like protein 3; in [3]; in [4]; in assay [5]) was > 30 µM (inactive) throughout. Moreover, the Kd (at Adenosine kinase; in assay [6]; in [7]) was > 30 µM (inactive) each time.

Take `CCOc1cc2ncc(C#N)c(Nc3ccc(F)c(Cl)c3)c2cc1NC(=O)/C=C/CN(C)C` [PELITINIB]: the Kd (in assay [1]; at Rab-like protein 3; in assay [3]; in assay [4]; in [5]; on Adenosine kinase) was > 30 µM (inactive) throughout. Also, the Kd in assay [7] and in [8] was > 30 µM (inactive) in each case.

Consider `CCS(=O)(=O)c1cccc(-c2cc(C(=O)NC3CCN(C)CC3)c(C)c3[nH]c4ncc(C)cc4c23)c1` [TAK-901], for which the Kd (in assay [1]; in [2]; at Rab-like protein 3; in assay [3]; in [4]; in assay [5]) was > 30 µM (inactive) throughout. In addition, the values for the Kd (at Adenosine kinase; in assay [6]; in assay [7]) were > 30 µM (inactive), 0.695 µM (active) and > 30 µM (inactive), respectively.

As to `CN1C/C=C/CCOc2cccc(c2)-c2ccnc(n2)Nc2cccc(c2)C1` [ZOTIRACICLIB], the Kd (in assay [1]; in [2]; on Rab-like protein 3; in assay [3]; in assay [4]; in assay [5]) was > 30 µM (inactive) in each case. The Kd (at Adenosine kinase; in assay [6]; in assay [7]) was > 30 µM (inactive) throughout.

The values are drawn from ChEMBL document CHEMBL3991601, “The target landscape of clinical kinase drugs” (Science, 2017).
